Key:
[1] = test system: carrageenan-induced rat paw edema; assay: In vivo carrageenan induced rat paw edema assay; parameters: species or system rat (male Sprague-Dawley); conditions: compound intravenously in DMSO one hour before carrageenan, vs vehicle control = 0%
Experimental: (§1) Anti-inflammatory activity was determined by the carrageenan-induced rat paw edema method described by Winter et al., Proc. Soc. Exp. Biol. Med. 1962, 111, 544, using male Sprague-Dawley rats weighing 150 to 200 g (6-8 weeks old). The protocol for the animal experiments performed was approved by the Research Ethics Committee and Animal Care and Use Committee, Govt. of Saudi Arabia. Compounds were administered intravenously in dimethyl sulfoxide solution. Paw edema was induced by intradermal injection of 50 μ. of 1% λ-carrageenan (Sigma, USA) into the subplantar region of the right hind paw, after one hour of compound administration. […] The control group received only the vehicle. Increase in paw volume was compared with that in the control group and percent inhibition was calculated taking the values in the control group as 0% inhibition.
In Vivo Carrageenan Induced Rat Paw Edema Assay
as §1, with “(Winter” for “Winter”, “al.” for “al.,”, “544). Male” for “544, using male”, “old) were used in groups of six animals per group for the experiments. The animals were housed in a room with temperature of 22±2° C. under a 12 h light/dark cycle. They were allowed free access to food and water ad libitum.” for “old).”, “μl” for “μ.”, “X-carrageenan” for “λ-carrageenan”

ovine COX-1 = target: T1, ovine COX-1 (Ovis aries, UniProt P05979); assay: In vitro COX inhibition assay, colorimetric COX (ovine) inhibitor screening kit, COX-1; type: biochemical; conditions: ovine COX-1, colorimetric kit
T1 construct: purchased Cayman Chemicals, USA
T1 sequence (P05979 25-600): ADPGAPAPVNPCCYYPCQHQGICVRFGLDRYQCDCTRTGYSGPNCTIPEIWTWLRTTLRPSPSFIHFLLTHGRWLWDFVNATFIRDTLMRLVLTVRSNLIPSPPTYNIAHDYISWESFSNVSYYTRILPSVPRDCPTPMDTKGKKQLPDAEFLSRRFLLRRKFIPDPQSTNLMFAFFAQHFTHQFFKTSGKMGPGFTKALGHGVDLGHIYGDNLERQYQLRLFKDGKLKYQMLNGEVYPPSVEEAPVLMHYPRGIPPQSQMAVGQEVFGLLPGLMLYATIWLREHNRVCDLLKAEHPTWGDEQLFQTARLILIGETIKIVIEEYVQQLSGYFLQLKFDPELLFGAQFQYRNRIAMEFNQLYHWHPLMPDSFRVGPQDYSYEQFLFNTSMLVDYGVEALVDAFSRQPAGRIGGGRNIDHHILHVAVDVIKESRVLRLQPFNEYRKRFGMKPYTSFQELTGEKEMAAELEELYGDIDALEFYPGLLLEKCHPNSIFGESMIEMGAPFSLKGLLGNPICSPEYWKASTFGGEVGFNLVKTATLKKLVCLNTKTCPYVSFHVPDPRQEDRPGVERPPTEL
Experimental: (§2) Inhibition of the enzymes was determined with the colorimetric COX (ovine) inhibitor screening assay.
(§3) In Vitro COX Inhibition Assay
(§4) The final compounds were evaluated for their ability to inhibit ovine COX-1 and COX-2 enzymes [50% percent inhibition is expressed in molar concentration […]] […] Inhibition of the enzymes was determined with the colorimetric COX (ovine) inhibitor screening assay kit (Cayman Chemicals, USA) using ELISA reader.

ovine COX-2 = target: T2, ovine COX-2 (Ovis aries, UniProt P79208); assay: In vitro COX inhibition assay, colorimetric COX (ovine) inhibitor screening kit, COX-2; type: biochemical; conditions: for IC50: ovine COX-2, colorimetric kit; for Selectivity index (COX-1/COX-2): ratio of IC50 COX-1 / IC50 COX-2
T2 construct: purchased Cayman Chemicals, USA
T2 sequence (P79208 17-603): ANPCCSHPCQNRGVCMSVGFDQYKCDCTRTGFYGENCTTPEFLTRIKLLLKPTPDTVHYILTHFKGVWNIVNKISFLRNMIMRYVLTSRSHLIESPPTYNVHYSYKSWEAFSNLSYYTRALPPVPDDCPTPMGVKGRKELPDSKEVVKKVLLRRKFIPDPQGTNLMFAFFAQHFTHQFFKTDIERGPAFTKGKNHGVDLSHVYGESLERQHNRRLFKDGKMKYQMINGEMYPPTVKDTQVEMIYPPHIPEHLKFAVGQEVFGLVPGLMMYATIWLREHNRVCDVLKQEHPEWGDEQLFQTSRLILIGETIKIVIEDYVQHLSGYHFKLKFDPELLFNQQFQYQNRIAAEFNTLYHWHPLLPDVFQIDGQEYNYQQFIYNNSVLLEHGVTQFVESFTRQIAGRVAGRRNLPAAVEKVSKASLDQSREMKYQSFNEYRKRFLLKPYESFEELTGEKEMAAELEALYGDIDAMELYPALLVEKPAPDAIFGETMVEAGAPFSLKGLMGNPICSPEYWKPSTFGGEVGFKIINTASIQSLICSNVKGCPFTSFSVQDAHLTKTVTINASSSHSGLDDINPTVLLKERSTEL
Experimental: as §2, §3, §4

Row | Compound | AI activity % inhibition at 1 hr (carrageenan paw edema) [1] | AI activity % inhibition at 2 hr (carrageenan paw edema) [1] [%] | melting point [°C] | IC50 (ovine COX-1) [nM] | IC50 (ovine COX-2) [nM] | Selectivity index (COX-1/COX-2) (ovine COX-2)
1 | Cc1ccc(-c2cc(C(F)(F)F)nn2-c2ccc(S(N)(=O)=O)cc2)cc1 [Celecoxib, reference compound] | 50 ± 2.1% | 71.5 ± 3.7 | – | – | – | –
2 | C#CCSC1NN=C(c2ccncc2)N1c1ccccc1 (stereo not drawn) [Compound 3, 4-Phenyl-3-(prop-2-ynylthio)-5-pyridine-4-yl-2,4-dihydro-3H-1,2,4-triazole] | – | – | 151 to 152 | – | – | –
3 | C#CCSc1nnc(-c2ccncc2)n1-c1ccccc1 [Compound 3, 4-Phenyl-3-(prop-2-ynylthio)-5-pyridine-4-yl-2,4-dihydro-3H-1,2,4-triazole] | 10 ± 5.4% | 12 ± 4.9 | – | 7.5 | 5.3 | 1.42
4 | CCCC(C)SC1NN=C(c2ccncc2)N1c1ccccc1 (stereo not drawn) [Compound 4, 3-[(Pent-2-yl)thio]-4-phenyl-5-pyridine-4-yl-2,4-dihydro-3H-1,2,4-triazole] | – | – | 96 to 97 | – | – | –
5 | CCCC(C)Sc1nnc(-c2ccncc2)n1-c1ccccc1 (stereo not drawn) [Compound 4, 3-[(Pent-2-yl)thio]-4-phenyl-5-pyridine-4-yl-2,4-dihydro-3H-1,2,4-triazole] | 36 ± 2.1% | 50 ± 2.5 | – | 3.7 | 1.4 | 2.64
6 | C=CCCCSC1NN=C(c2ccncc2)N1c1ccccc1 (stereo not drawn) [Compound 5] | – | – | 132 to 133 | – | – | –
7 | C=CCCCSc1nnc(-c2ccncc2)n1-c1ccccc1 [Compound 5] | 9 ± 1.3% | 38 ± 1.8 | – | 4.4 | 2.6 | 1.69
8 | CCOC(=O)n1nc(-c2ccncc2)n(-c2ccccc2)c1=S [Compound 6, Ethyl[4-phenyl-5-pyridine-4-yl-3-thioxo-2,4-dihydro-3H-1,2,4-triazole-2-yl]carboxylate] | 0.0% | 5 ± 1.8 | 231 to 232 | 9.2 | 7.8 | 1.18
9 | OCn1nc(-c2ccncc2)n(-c2ccccc2)c1=S [Compound 7, 2-Hydroxymethyl-4-phenyl-5-pyridine-4-yl-2,4-dihydro-3H-1,2,4-triazole-3-thione] | 25 ± 1.8% | 66 ± 2.6 | 277 to 278 | 3.5 | 0.8 | 4.38
10 | CN(C)Cn1nc(-c2ccncc2)n(-c2ccccc2)c1=S [Compound 8, 2-Dimethylaminomethyl-4-phenyl-5-pyridine-4-yl-2,4-dihydro-3H-1,2,4-triazole-3-thione] | 51 ± 1.5% | 76 ± 2.8 | 173 to 174 | 3.1 | 0.9 | 3.44
11 | CCN(CC)Cn1nc(-c2ccncc2)n(-c2ccccc2)c1=S [Compound 9, 2-Diethylaminomethyl-4-phenyl-5-pyridine-4-yl-2,4-dihydro-3H-1,2,4-triazole-3-thione] | 45 ± 1.1% | 66 ± 1.2 | 216 to 217 | 3.8 | 1.1 | 3.46
12 | S=c1n(CN2CCCC2)nc(-c2ccncc2)n1-c1ccccc1 [Compound 10, 4-Phenyl-5-pyridine-4-yl-2-pyrrolidinylmethyl-2,4-dihydro-3H-1,2,4-triazole-3-thione] | 62 ± 3.4% | 66 ± 1.5 | – | 3.7 | 0.9 | 4.11
13 | CN(CCO)Cn1nc(-c2ccncc2)n(-c2ccccc2)c1=S [Compound 11, N-Methyl-N-[(4-phenyl-5-pyridine-4-yl-3-thioxo-2,4-dihydro-3H-1,2,4-triazol-2-y)methyl]-2-aminoethanol] | Zero | 16 ± 5.9 | 173 to 174 | 4.5 | 2.1 | 2.14
14 | S=c1n(CNc2ccc(Br)cc2)nc(-c2ccncc2)n1-c1ccccc1 [Compound 12, 2-[(4-Bromophenylamino)methyl]-4-phenyl-5-pyridine-4-yl-2,4-dihydro-3H-1,2,4-triazole-3-thione] | 12.5 ± 1.6% | 29 ± 3.8 | 208 to 209 | 6.4 | 3.9 | 1.64
15 | S=c1n(CNCc2ccc(Cl)cc2)nc(-c2ccncc2)n1-c1ccccc1 [Compound 13, 2-[(4-Chlorobenzylamino)methyl]-4-phenyl-5-pyridine-4-yl-2,4-dihydro-3H-1,2,4-triazole-3-thione] | 16 ± 5.7% | 19 ± 6.3 | – | 8.7 | 6.8 | 1.38
